Source: PMC9995496, “A screen for MeCP2-TBL1 interaction inhibitors using a luminescence-based assay” (Scientific Reports, 2023)
Counter-ions that a name gives are not always drawn. Like-named read-outs stand apart in the source and are kept apart here. Peptide text beside a SMILES is read from it.

System: PRKACA-PRKAR2A interaction (SmBiT-PRKACA / LgBiT-PRKAR2A), protein kinase A
Parameters: NanoLuc complementation counter-screen in cell extract, PRKACA with PRKAR2A, loss of luminescence, detects NanoLuc interference
Settings: 0.5 h, 20 µM, inhibitor
[1] = counter-screen for NanoLuc interference
[2] = counter-screen for NanoLuc interference, Inh (PKA)

Structure (SMILES) | Inh (PKA) [1] | also measured
C=CCn1c(=O)c2cnc(Nc3ccc(N4CCN(C)CC4)cc3)nc2n1-c1cccc(C(C)(C)O)n1 [UM0135452:02, MK-1775] | 7.841% | –
CS(=O)(=O)c1ccc(-c2cnc(N)c(C(=O)Nc3ccccc3)n2)cc1 [UM0135461:02, VE-821] | 11.31% | –
CNCc1ccc(-c2cc(-c3nc(-c4ccc(S(=O)(=O)C(C)C)cc4)cnc3N)on2)cc1 [UM0135462:02, VE-822] | 14.15% | –
O=c1cc(N2CCOCC2)oc2c(-c3cccc4c3sc3ccccc34)cccc12 [UM0135467:02, NU7441 (KU-57788)] | 24.55% | –
CC(C)(C#N)c1ccc(N2C(=O)OCc3cnc4ccc(-c5cnc6ccccc6c5)cc4c32)cc1 [UM0135469:02, ETP-46464] | 11.28% | –
CNCc1ccc(-c2[nH]c3cc(F)cc4c3c2CCNC4=O)cc1 [UM0135471:02, Rucaparib (AG-014699,PF-01367338)] | – | Inh (PKA) [2]: 3.125%
O=C(c1cc(Cc2n[nH]c(=O)c3ccccc23)ccc1F)N1CCN(C(=O)C2CC2)CC1 [UM0135473:02, Olaparib (AZD2281, Ku-0059436)] | 2.339% | –
CC(C)C[C@H](NC(=O)[C@H](Cc1ccccc1)NC(=O)c1cnccn1)B(O)O [UM0135483:03, Bortezomib (PS-341)] | 1.59% | –
CO[C@H]1C[C@@H]2CC[C@@H](C)[C@@](O)(O2)C(=O)C(=O)N2CCCC[C@H]2C(=O)O[C@H]([C@H](C)C[C@@H]2CC[C@@H](OC(=O)C(C)(CO)CO)[C@H](OC)C2)CC(=O)[C@H](C)/C=C(\C)[C@@H](O)[C@@H](OC)C(=O)[C@H](C)C[C@H](C)/C=C/C=C/C=C/1C [UM0135484:03, Temsirolimus] | 1.626% | –
Cn1cncc1[C@@](N)(c1ccc(Cl)cc1)c1ccc2c(c1)c(-c1cccc(Cl)c1)cc(=O)n2C [UM0135485:03, Tipifarnib (Zarnestra)] | 47.09% | –
COc1cc(Nc2ncc3c(n2)-c2ccc(Cl)cc2C(c2c(F)cccc2OC)=NC3)ccc1C(=O)O [UM0135487:02, MLN8237 (Alisertib)] | 50.43% | –
CS(=O)(=O)c1ccc(C(=O)Nc2ccc(Cl)c(-c3ccccn3)c2)c(Cl)c1 [UM0135488:02, GDC-0449 (Vismodegib)] | 8.773% | –
CC1(C)CCC(CN2CCN(c3ccc(C(=O)NS(=O)(=O)c4ccc(NCC5CCOCC5)c([N+](=O)[O-])c4)c(Oc4cnc5[nH]ccc5c4)c3)CC2)=C(c2ccc(Cl)cc2)C1 [UM0135497:03, ABT-199] | 28.89% | –
S=c1[nH]cnc2nc[nH]c12 [UM0135507:02, Mercaptopurine (6-MP)] | 1.981% | –
Cn1nnc2c(C(N)=O)ncn2c1=O [UM0135509:03, Temozolomide] | 1.163% | –
Cc1[nH]c2ccccc2c1CCNCc1ccc(/C=C/C(=O)NO)cc1 [UM0135511:02, Panobinostat (LBH589)] | 3.589% | –
CN(C)CC[C@H](CSc1ccccc1)Nc1ccc(S(=O)(=O)NC(=O)c2ccc(N3CCN(Cc4ccccc4-c4ccc(Cl)cc4)CC3)cc2)cc1[N+](=O)[O-] [UM0136062:02, ABT-737] | 17.72% | –
Cc1cnc(Nc2ccc(OCCN3CCCC3)cc2)nc1Nc1cccc(S(=O)(=O)NC(C)(C)C)c1 [UM0136753:02, TG101348 (SAR302503)] | 24.97% | –
Cc1cc(Nc2nc(N[C@@H](C)c3ncc(F)cn3)ncc2Cl)[nH]n1 [UM0136754:02, AZD1480] | 15.63% | –

Structure (SMILES) | Inh (PKA) [1] | also measured
N#CCNC(=O)c1ccc(-c2ccnc(Nc3ccc(N4CCOCC4)cc3)n2)cc1 [UM0136756:02, CYT387] | 3.804% | –
C/C(=C\C(=O)Nc1ccccc1C(=O)O)c1ccc2ccccc2c1 [UM0138522:02, BIBR 1532] | 77.2% | –
CC1(COc2ccc3c(c2)ncn3-c2ccc3cccc(N4CCC(N)CC4)c3n2)COC1 [UM0139425:02, Crenolanib (CP-868596)] | 13.43% | –
CCCCc1nc2cc(/C=C/C(=O)NO)ccc2n1CCN(CC)CC [UM0139427:02, Pracinostat (SB939)] | 1.482% | –
Cc1sc2c(c1C)C(c1ccc(Cl)cc1)=N[C@@H](CC(=O)Nc1ccc(O)cc1)c1nnc(C)n1-2 [UM0139428:02, OTX-015] | – | Inh (PKA): 7.269
O=C1[C@H](Cc2ccc(O)cc2)N2C(=O)CCN(C(=O)NCc3ccccc3)[C@H]2CN1Cc1cccc2ccccc12 [UM0139430:02, ICG 001] | 13.98% | –
N#Cc1ccnc(N2C(=O)CC[C@H]2C(=O)N(c2cncc(F)c2)[C@H](C(=O)NC2CC(F)(F)C2)c2ccccc2Cl)c1 [UM0139433:02, AG-120] | 2.094% | –
CC(C)(O)CNc1nc(Nc2ccnc(C(F)(F)F)c2)nc(-c2cccc(C(F)(F)F)n2)n1 [UM0139434:02, AG-221 (Enasidenib)] | – | Inh (PKA): 31.79
CCOC(=O)c1sc(NC(=O)c2ccco2)c(SC#N)c1C [UM0139891:02, CBR-5884] | 28.46% | –
NC(=O)Nc1cc(-c2cccc(F)c2)sc1C(=O)N[C@H]1CCCNC1 [UM0139975:02, AZD7762] | 35.89% | –
C=CC(=O)N1C/C(=C\c2ccc([N+](=O)[O-])cc2)C(=O)/C(=C/c2ccc([N+](=O)[O-])cc2)C1 [UM0139980:02, NSC 687852 (b-AP15)] | 14.65% | –
O=C(O)O [UM0141172:02, Lithium carbonate] | -3.585% | –
NCC(=O)NCC(=O)N[C@@H](Cc1ccc(O)cc1)C(=O)N[C@@H](CCCN=C(N)N)C(=O)O [UM0141375:01, Papain Inhibitor] (H-GGYR-OH) | 1.556% | –
Cn1cc(-c2ccc3nnc(Sc4ccc5ncccc5c4)n3n2)cn1 [UM0141386:01, SGX-523] | 2.769% | –
CCCCCCCCCC(=O)N[C@@H](Cc1c[nH]c2ccccc12)C(=O)N[C@H](CC(N)=O)C(=O)N[C@@H](CC(=O)O)C(=O)N[C@@H]1C(=O)NCC(=O)N[C@@H](CCCN)C(=O)N[C@@H](CC(=O)O)C(=O)N[C@H](C)C(=O)N[C@@H](CC(=O)O)C(=O)NCC(=O)N[C@H](CO)C(=O)N[C@@H]([C@H](C)CC(=O)O)C(=O)N[C@@H](CC(=O)c2ccccc2N)C(=O)O[C@@H]1C [UM0141387:01, Daptomycin] | 0.4906% | –
C=C1C[C@@H]2[C@H](CC[C@]3(C)C(=O)CC[C@@H]23)[C@@]2(C)C=CC(=O)C=C12 [UM0141388:01, Exemestane] | 1.515% | –
CCc1cc(Nc2nccc(-c3c(-c4ccc(OC)c(C(=O)Nc5c(F)cccc5F)c4)nc4ccccn34)n2)c(OC)cc1N1CCC(N2CCN(S(C)(=O)=O)CC2)CC1 [UM0141389:01, GSK1904529A] | 3.167% | –
N#Cc1ccc(C(c2ccc(C#N)cc2)n2cncn2)cc1 [UM0141390:01, Letrozole] | 1.331% | –
CCOc1cc(N)c(Cl)cc1C(=O)NCC1CN(Cc2ccc(F)cc2)CCO1 (stereo not drawn) [UM0141391:01, Mosapride Citrate] | 13.81% | –

Structure (SMILES) | Inh (PKA) [1] | also measured
C=CC[N+]1([C@H]2C[C@H]3[C@@H]4CC[C@H]5C[C@H](O)[C@@H](N6CCOCC6)C[C@]5(C)[C@H]4CC[C@]3(C)[C@H]2OC(C)=O)CCCC1 [UM0141392:01, Rocuronium Bromide] | 2.002% | –
COc1cc(N2CCC(N3CCN(C)CC3)CC2)ccc1Nc1ncc(Cl)c(Nc2ccccc2P(C)(C)=O)n1 [UM0141393:01, AP26113] | 6.926% | –
C[C@@H](O)[C@H]1C(=O)N2C(C(=O)[O-])=C(SC3Cn4cnc[n+]4C3)[C@H](C)[C@H]12 (stereo partly drawn) [UM0141395:01, Biapenem] | 2.946% | –
C=CC(=O)Nc1cccc(Oc2nc(Nc3ccc(N4CCN(C)CC4)cc3OC)ncc2Cl)c1 [UM0141397:01, WZ4002] | 30.48% | –
C=CC(=O)Nc1cccc(Sc2nc(Nc3ccc(N4CCN(C)CC4)cc3)ncc2Cl)c1 [UM0141398:01, WZ8040] | 37.33% | –
Nc1ccn([C@@H]2O[C@H](CO)[C@@H](O)C2(F)F)c(=O)n1 [UM0141399:01, Gemcitabine HCl] | – | Inh (PKA) [2]: 0.8082%
COc1ccc(S(=O)(=O)Nc2cccnc2Nc2ccc(O)cc2)cc1 [UM0141402:01, ABT-751 (E7010)] | 8.683% | –
C[C@@H](CN1CC(=O)NC(=O)C1)N1CC(=O)NC(=O)C1 [UM0141403:01, Dexrazoxane HCl (ICRF-187, ADR-529)] | 2.168% | –
O=C(N/N=C/c1ccc(O)c(O)c1)c1cc2ccccc2cc1O [UM0141404:01, Dynasore] | 24% | –
CC(=O)Oc1cc2c(s1)CCN(C(C(=O)C1CC1)c1ccccc1F)C2 (stereo not drawn) [UM0141405:01, Prasugrel] | – | Inh (PKA) [2]: 8.306%
Oc1ccc(-c2nc(-c3ccc(F)cc3)c(-c3ccncc3)[nH]2)cc1 [UM0141406:01, SB202190 (FHPI)] | 40.66% | –
CCNC(=O)Nc1ccc(-c2nc3c(c(N4CCOC[C@@H]4C)n2)CCN(C2COC2)C3)cc1 [UM0141407:01, GDC-0349] | 3.779% | –
C[C@]12C=CC(=O)N[C@@H]1CC[C@@H]1[C@@H]2CC[C@]2(C)[C@@H](C(=O)Nc3cc(C(F)(F)F)ccc3C(F)(F)F)CC[C@@H]12 [UM0141408:01, Dutasteride] | 7.996% | –
C[C@@H](O[C@H]1OCCN(Cc2n[nH]c(=O)[nH]2)[C@H]1c1ccc(F)cc1)c1cc(C(F)(F)F)cc(C(F)(F)F)c1 [UM0141409:01, Aprepitant] | 12.87% | –
O=C(O)CCc1ccc(NCc2cccc(Oc3ccccc3)c2)cc1 [UM0141410:01, GW9508] | 28.45% | –
CC[C@@H]([C@H](C)O)n1ncn(-c2ccc(N3CCN(c4ccc(OC[C@@H]5CO[C@@](Cn6cncn6)(c6ccc(F)cc6F)C5)cc4)CC3)cc2)c1=O [UM0141411:01, Posaconazole] | 3.84% | –
C[C@H](Nc1ncnc2nc[nH]c12)c1cc2cccc(Cl)c2c(=O)n1-c1ccccc1 [UM0141412:01, IPI-145 (INK1197)] | 8.901% | –
CC(C)OC(=O)OCOP(=O)(CO[C@H](C)Cn1cnc2c(N)ncnc21)OCOC(=O)OC(C)C [UM0141413:01, Tenofovir Disoproxil Fumarate] | 0.7211% | –
CCN1CCN(Cc2ccc(Nc3ncc(F)c(-c4cc(F)c5nc(C)n(C(C)C)c5c4)n3)nc2)CC1 [UM0141414:01, LY2835219] | 8.649% | –
